Measurements from US20110296540A1, “ASSAY FOR SCREENING ANTIDEPRESSANTS” (priority 2008, published 2011).

System: β-arrestin 2 knock out mice
Test: Forced Swim Test in β-arrestin 2 knock out mice and littermates
Type: in vivo
Settings: relative to the control group
Experimental: The forced swim test procedure was modified relative to the traditional method, so as to enhance sensitivity for detecting the putative antidepressant activity of drugs (Porsolt et al., 1977). The modifications consist of an increase in water depth (Dulawa et al., 2004). Mice were placed into plastic buckets (19 cm diameter, 23 cm deep, filled with 23-25° C. water) and videotaped for 6 min to score immobility duration.

CNCCC(Oc1ccc(C(F)(F)F)cc1)c1ccccc1 (centres unmarked) [fluoxetine]
immobility (FST) (wild-type mice): decrease in immobility | immobility (FST) (β-arrestin 2 knockout mice): decrease in immobility
